Measured values taken from publication PMC9032385, “A2A Adenosine Receptor Antagonists: Are Triazolotriazine and Purine Scaffolds Interchangeable?” (Molecules, 2022).

What was measured:
[1] = target: T1, human recombinant A2AAR (Homo sapiens, UniProt P29274); assay: Radioligand binding at human A2AAR ([3H]NECA displacement, CHO cell membranes)
T1 construct: expressed in transfected cells; membrane preparation
Protocol: Most of the compounds were also evaluated at A2BARs in a functional study using the GloSensor cAMP assay. […] In the case of A2BARs, Ki-values were calculated from IC50-values determined by the inhibition of NECA-stimulated adenylyl cyclase activity.
Preparation of membranes: Cell membranes for binding assays were prepared mechanically detaching the cells from the petri and suspending them in a cold hypotonic buffer (5 mM Tris/HCl, 2 mM EDTA, pH 7.4). The cell suspension was homogenized (Ultra-Turrax, 2 × 15 s at maximum speed) and the homogenate centrifuged for 10 min (4 °C) to 1000× g. […] The amount of the protein suspension was determined according to the […] using the BCA Protein Assay Kit (Pierce), frozen in liquid nitrogen, and stored at −80 °C.
(§1) Binding assays: The dissociation constants of the radioligand (KD) were calculated through saturation assays, while the dissociation constants of the compounds under study (Ki) were determined by competition experiments. All binding data were calculated by nonlinear regression curves using the software GraphPad Prism 5 (GraphPad Software, San Diego, CA, USA). The increasing concentrations of the radioligand saturation binding ([^3H]-CCPA for the A1 receptor subtype, [^3H]-NECA for the A2A receptor subtype, and [^3H]-HEMADO for the A3 receptor) subtype were incubated in a total volume of 250 μL containing 0.2 U/mL of Ado deaminase (ADA) and 12 micrograms of membrane proteins in the specific buffer. In competition experiments for the A1 receptor subtype, each compound was added at increasing concentrations, to the well containing 1 nM of [^3H]-CCPA, to a final volume of 200 μL. The samples were left to incubate for 3 h at room temperature, filtered in a filter 96-well plate (UniFilter GF/C, Perkin-Elmer Life and Analytical Science, Boston, MA) using the FilterMate Cell Harvester (Perkin-Elmer), and washed 3 times with cold distilled water. After drying the filter plate at 40 °C for 30′, they 20 μL of scintillating liquid (Microscint-20, Perkin-Elmer) was added to each well, and then the radioactivity was quantized with the MicroBeta2 Plate Counter (Perkin-Elmer). The conditions for binding experiments at A2A and A3 receptor subtypes were essentially the same as for the A1AR using [^3H]-NECA (N-ethylcarboxyamideAdo) at a concentration of 10 nM and [^3H]-HEMADO (2-(1-hexyne)-N^6-methylAdo) at a concentration of 1 nM as radioligands, respectively. The samples were incubated with 12 micrograms of protein for 3 h at room temperature and filtered as described above.
(§2) The non-specific binding was determined in the presence of 1 mM theophylline for the A1AR, or 100 µM R-PIA (N^6-(1-methyl-2-phenylethyl)Ado) for the A2A and A3 receptors.

[2] = target: T2, human recombinant A3AR (Homo sapiens, UniProt P0DMS8); assay: Radioligand binding at human A3AR ([3H]HEMADO displacement, CHO cell membranes); settings: displacement of [3H]HEMADO, n = 3–5, means ± standard errors
T2 construct: expressed in transfected cells; membrane preparation
T2 sequence (P0DMS8 1-318): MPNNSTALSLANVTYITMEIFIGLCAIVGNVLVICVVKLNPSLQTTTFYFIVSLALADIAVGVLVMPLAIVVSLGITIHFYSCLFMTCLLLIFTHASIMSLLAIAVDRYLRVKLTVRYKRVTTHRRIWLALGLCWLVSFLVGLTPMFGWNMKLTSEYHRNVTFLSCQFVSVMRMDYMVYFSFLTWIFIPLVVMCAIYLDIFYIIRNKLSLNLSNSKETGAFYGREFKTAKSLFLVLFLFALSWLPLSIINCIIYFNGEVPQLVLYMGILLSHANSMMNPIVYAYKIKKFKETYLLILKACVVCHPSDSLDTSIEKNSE
Protocol: The affinities of the newly synthesized compounds 7–13 and 17–21 were determined in binding studies at human recombinant A1, A2A, and A3 ARs, stably transfected in Chinese hamster ovary (CHO) cells, using [^3H]CCPA (2-chloro-N^6-cyclopentylAdo), [^3H]NECA (5′-N-ethylcarboxamidoAdo), and [^3H]HEMADO (2-hexynyl-N^6-methylAdo) as respective radioligands. Most of the compounds were also evaluated at A2BARs in a functional study using the GloSensor cAMP assay. The results are reported in Table 1 as Ki values in nM (± standard errors). In the case of A2BARs, Ki-values were calculated from IC50-values determined by the inhibition of NECA-stimulated adenylyl cyclase activity.
Cell culture: The Chinese hamster ovary cells (CHO) stably transfected with the desired ARs were grown in DMEM/F12 medium containing 10% FBS (fetal bovine serum), 100 U/mL penicillin, 100 µg/mL streptomycin, 2.5 μg/mL amphotericin B, 1 mM sodium pyruvate, 0.1 mg/mL genetecina (G418), and incubated at 37 °C in a gaseous mixture of 5% CO2: […].
Preparation of membranes: Cell membranes for binding assays were prepared mechanically detaching the cells from the petri and suspending them in a cold hypotonic buffer (5 mM Tris/HCl, 2 mM EDTA, pH 7.4). The cell suspension was homogenized (Ultra-Turrax, 2 × 15 s at maximum speed) and the homogenate centrifuged for 10 min (4 °C) to 1000× g. The supernatant was subsequently centrifuged for 30 min (4 °C) at 100,000× g and the pellet containing the membrane proteins was re-suspended in a specific buffer for each receptor subtype (A1: 50 mM Tris/HCl, pH 7.4; A2A: 50 mM Tris/HCl, 10 mM MgCl2, pH 7.4; A3: 50 mM Tris/HCl, 10 mM MgCl2, 1 mM EDTA, pH 8.25). The amount of the protein suspension was determined according to the […] using the BCA Protein Assay Kit (Pierce), frozen in liquid nitrogen, and stored at −80 °C.
as §1, §2

T1 sequence (P29274 whole entry): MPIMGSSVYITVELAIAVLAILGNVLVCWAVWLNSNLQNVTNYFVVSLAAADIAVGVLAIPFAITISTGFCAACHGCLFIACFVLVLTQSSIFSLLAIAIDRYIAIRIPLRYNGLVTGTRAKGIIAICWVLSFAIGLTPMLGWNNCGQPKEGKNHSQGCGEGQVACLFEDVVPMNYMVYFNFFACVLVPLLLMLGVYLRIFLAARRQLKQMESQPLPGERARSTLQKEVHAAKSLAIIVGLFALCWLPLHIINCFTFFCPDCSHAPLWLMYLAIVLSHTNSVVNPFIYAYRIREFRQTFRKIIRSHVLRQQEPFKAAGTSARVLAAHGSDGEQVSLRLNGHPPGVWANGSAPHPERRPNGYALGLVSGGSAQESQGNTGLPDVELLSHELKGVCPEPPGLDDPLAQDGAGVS

Compound: CCn1c(-c2ccco2)nc2c(N)nc(NCCc3ccc(O)cc3)nc21 [compound 13, 4-(2-((6-Amino-9-ethyl-8-(furan-2-yl)-9H-purin-2-yl)amino)ethyl)phenol]
- Ki ([1]; displacement of [3H]NECA, CHO membranes, n = 3–5, means ± standard errors): 1.8 nM
- selectivity A1/A2A ([1]; ratio of Ki values): 28
- selectivity A2B/A2A ([1]; ratio of Ki values): 796
- selectivity A3/A2A ([1]; ratio of Ki values): 7
- Ki [2]: 12 nM
